Data set [1] can be described thus: Solubility (at 25° C., 24 h equilibration). The format is physicochemical. As to conditions: for solubility: 25° C., 24 h; for solubility / solubility at 24 h: target concentration 2 mg/mL; for solubility at 24 h: 25 °C, thermodynamic from solid.
The nature of data set [2]: Dynamic Vapor Sorption, physical stability to humidity. The format is physicochemical. As to conditions: for physical stability (DVS): 50%-0%-90% RH.
Data set [3] has as its target T1, wild-type ALK2 (aa172-499) (Homo sapiens (Human), UniProt Q04771). Kind of data set: ADPGlo biochemical autophosphorylation assay, ALK2. As to conditions: 15 μm ATP, 60 min at 32° C.
A further data set addresses ALK3 (aa198-525) (Homo sapiens (Human), UniProt P36894). Kind of data set: ADPGlo biochemical autophosphorylation assay, ALK3. As to conditions: 15 μm ATP, 60 min at 32° C.
The target in data set [4] is T1, wild-type ALK2 (aa172-499). Kind of data set: Caliper biochemical peptide phosphorylation assay, ALK2. As to conditions: 15 μm ATP, 60 min at 30° C.; read-out: ALK2 EPK (IC50).
For a further data set, the target named is ALK1 (aa166-493) (Homo sapiens (Human), UniProt P37023). Kind of data set: Caliper biochemical peptide phosphorylation assay, ALK1. As to conditions: 15 μm ATP, 60 min at 30° C.; read-out: ALK1 EPK (IC50).
For a further data set, the target named is ALK5 (aa162-503) (Homo sapiens (Human), UniProt P36897). Kind of data set: Caliper biochemical peptide phosphorylation assay, ALK5. As to conditions: 15 μm ATP, 60 min at 30° C.; read-out: ALK5 EPK (IC50).
For a further data set, the target named is ALK6 (aa168-495) (Homo sapiens (Human), UniProt O00238). Kind of data set: Caliper biochemical peptide phosphorylation assay, ALK6. As to conditions: 15 μm ATP, 60 min at 30° C.; read-out: ALK6 EPK (IC50).
Data set [5] has as its system BMP response element (BRE) luciferase reporter in HuH7 cells, BMP6 stimulated. Kind of data set: BMP signaling reporter gene assay. As to conditions: Homo sapiens, Huh-7; HuH7 BRE-luciferase, BMP6 100 ng/ml, 5 hours; read-out: MSD BMP RGA IC50. The format is cell-based.

Converted amounts (≈) assume the structure as drawn. Counter-ions that a name gives are not always drawn. Where only a bound is given, the exact number is not on record here.

The values below come from patent US10710980B2, “Aminopyridine derivatives and their use as selective ALK-2 inhibitors” (priority 2016, dated 2020).

Sequence of ALK3 (aa198-525) (P36894 198-525): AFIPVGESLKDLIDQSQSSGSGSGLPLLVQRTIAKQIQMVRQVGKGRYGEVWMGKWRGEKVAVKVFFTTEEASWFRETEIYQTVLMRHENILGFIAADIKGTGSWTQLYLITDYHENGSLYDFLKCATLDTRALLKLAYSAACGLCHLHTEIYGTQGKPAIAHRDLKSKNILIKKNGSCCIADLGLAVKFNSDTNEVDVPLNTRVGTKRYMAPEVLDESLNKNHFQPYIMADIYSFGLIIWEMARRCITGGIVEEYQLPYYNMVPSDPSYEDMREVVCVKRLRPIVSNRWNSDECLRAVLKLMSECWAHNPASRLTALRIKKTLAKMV
Sequence of ALK1 (aa166-493) (P37023 166-493): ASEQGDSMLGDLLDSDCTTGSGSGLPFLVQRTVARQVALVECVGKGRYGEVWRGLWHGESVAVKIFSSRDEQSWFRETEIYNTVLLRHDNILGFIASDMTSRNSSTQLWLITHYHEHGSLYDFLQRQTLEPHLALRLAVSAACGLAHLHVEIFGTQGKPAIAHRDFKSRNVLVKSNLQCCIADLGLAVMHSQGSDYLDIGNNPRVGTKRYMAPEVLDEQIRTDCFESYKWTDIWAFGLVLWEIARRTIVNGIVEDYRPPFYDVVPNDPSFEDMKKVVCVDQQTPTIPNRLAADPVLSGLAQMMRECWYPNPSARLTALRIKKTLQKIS
Sequence of ALK5 (aa162-503) (P36897 162-503): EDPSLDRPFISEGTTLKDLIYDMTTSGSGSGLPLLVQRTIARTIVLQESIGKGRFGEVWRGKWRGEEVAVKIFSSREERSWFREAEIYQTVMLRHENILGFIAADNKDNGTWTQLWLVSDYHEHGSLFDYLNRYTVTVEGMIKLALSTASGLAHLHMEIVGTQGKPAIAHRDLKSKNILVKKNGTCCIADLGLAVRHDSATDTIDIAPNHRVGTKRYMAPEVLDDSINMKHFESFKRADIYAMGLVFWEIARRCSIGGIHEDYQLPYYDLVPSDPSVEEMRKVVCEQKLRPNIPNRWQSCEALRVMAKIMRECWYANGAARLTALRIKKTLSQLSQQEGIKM
T1 sequence (Q04771 172-499): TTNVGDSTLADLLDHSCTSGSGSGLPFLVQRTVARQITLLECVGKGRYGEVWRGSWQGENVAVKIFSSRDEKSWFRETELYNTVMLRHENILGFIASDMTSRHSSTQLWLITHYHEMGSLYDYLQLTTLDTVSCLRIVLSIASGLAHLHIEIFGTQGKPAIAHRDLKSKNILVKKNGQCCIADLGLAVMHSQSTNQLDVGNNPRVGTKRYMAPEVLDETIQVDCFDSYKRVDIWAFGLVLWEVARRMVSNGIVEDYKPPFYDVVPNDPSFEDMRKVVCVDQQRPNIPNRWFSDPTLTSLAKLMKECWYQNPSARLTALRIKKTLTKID
Sequence of ALK6 (aa168-495) (O00238 168-495): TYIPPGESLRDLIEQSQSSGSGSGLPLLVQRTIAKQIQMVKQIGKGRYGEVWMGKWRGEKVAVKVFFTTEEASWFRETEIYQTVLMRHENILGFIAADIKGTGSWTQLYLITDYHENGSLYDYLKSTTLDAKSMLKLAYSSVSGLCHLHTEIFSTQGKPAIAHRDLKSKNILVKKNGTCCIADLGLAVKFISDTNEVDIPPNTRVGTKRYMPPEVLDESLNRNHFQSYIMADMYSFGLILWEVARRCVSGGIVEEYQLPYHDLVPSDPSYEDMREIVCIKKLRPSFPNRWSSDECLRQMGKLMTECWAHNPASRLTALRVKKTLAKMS

With `Nc1ncc(-c2ccc([C@@]34C[C@@H]3CN(C3CCOCC3)C4)cc2)cc1C(=O)NC12CCC(O)(CC1)CC2` [Fumarate salt Modification HA, 2-amino-N-(4-hydroxybicyclo[2.2.2]octan-1-yl)-5-(4-((1R,5S)-3-(tetrahydro-2H-pyran-4-yl)-3-azabicyclo[3.1.0]hexan-1-yl)phenyl)nicotinamide], the solubility in [1] (Water/7.2), in [1] (pH 1.0 1N HCl/1.1), in data set [1] (pH 2.0 HCl buffer 2.1), in data set [1] (pH 2.0 SGF/2.0), in data set [1] (pH 4.7 acetate buffer/4.8) and in data set [1] (pH 5.8 FeSSIF/5.9) was more than 2000 µg/mL throughout. Also, the results for the solubility in data set [1] (pH 6.5 FaSSIF/6.5) and in data set [1] (pH 6.8 phosphate buffer/6.8) were 1690 µg/mL and 1080 µg/mL, respectively. The “solubility compared with free form Modification HA” value in data set [1] (aqueous buffers) was “better solubility than free form Modification HA in some aqueous buffers”. In data set [1] (borate buffer, pH 9, aqueous buffer, pH 9.0 borate buffer/8.6, 24 h), this compound had a solubility at 24 h of 30 µg/mL. In addition, the “physical stability (DVS)” value in data set [2] (25° C.) is recorded as “physically stable at least from 0% to 90% RH”; in data set [2] (40° C.), “physically stable at least from 10% to 90% RH”. For the same compound, the “humidity range of stability compared with free form polymorphs” value in [2] (data not shown) is reported as “stable over a wider humidity range than free form polymorphs”.

`Nc1ncc(-c2ccc([C@@]34C[C@@H]3CN(C3CCOCC3)C4)cc2)cc1C(=O)NC12CCC(O)(CC1)CC2` [Free form Modification HA, 2-amino-N-(4-hydroxybicyclo[2.2.2]octan-1-yl)-5-(4-((1R,5S)-3-(tetrahydro-2H-pyran-4-yl)-3-azabicyclo[3.1.0]hexan-1-yl)phenyl)nicotinamide]: the solubility at 24 h is more than 2000 µg/mL in data set [1] (1N HCl, pH 1, simulated gastric fluid, pH 1.0 1N HCl/1.1, 24 h); 1690 µg/mL (≈ 3.36 mM) in data set [1] (FeSSIF, pH 5.8, fessif, pH 5.8 FeSSIF/5.9, 24 h); more than 2000 µg/mL in data set [1] (HCl buffer, pH 2, simulated gastric fluid, pH 2.0 HCl buffer 2.1, 24 h); more than 2000 µg/mL in data set [1] (SGF, pH 2, simulated gastric fluid, pH 2.0 SGF/2.0, 24 h); more than 2000 µg/mL in data set [1] (acetate buffer, pH 4.7, aqueous buffer, pH 4.7 acetate buffer/4.8, 24 h). In addition, the solubility in [1] (Water/7.2) is 70 µg/mL (≈ 0.139 mM); in data set [1] (pH 6.5 FaSSIF/6.5), 470 µg/mL (≈ 0.935 mM); in data set [1] (pH 6.8 phosphate buffer/6.8) it was 340 µg/mL (≈ 0.676 mM); in data set [1] (pH 9.0 borate buffer/8.6), “<LOQ”.

Consider `CC(C)N1C[C@@H]2C[C@]2(c2ccc(-c3cnc(N)c(C(=O)N[C@H]4CC[C@H](O)CC4)c3)cc2)C1` [Example 9, 2-amino-N-((1r,4S)-4-hydroxycyclohexyl)-5-(4-((1S,5R)-3-isopropyl-3-azabicyclo[3.1.0]hexan-1-yl)phenyl)nicotinamide], for which the IC50 in [3] worked out at 11 nM; on ALK3 (aa198-525) it was 1600 nM; in [4], 11 nM; at ALK1 (aa166-493), 127 nM; at ALK5 (aa162-503), 3130 nM; on ALK6 (aa168-495), 3130 nM. Besides, the IC50 in data set [5] was 43 nM.

Turning to `Nc1ncc(-c2ccc([C@]34C[C@H]3CN(CCCN3CCOCC3)C4)cc2)cc1C(=O)N[C@H]1CC[C@H](O)CC1` [Example 5, 2-amino-N-((1r,4S)-4-hydroxycyclohexyl)-5-(4-((1S,5R)-3-(3-morpholinopropyl)-3-azabicyclo[3.1.0]hexan-1-yl)phenyl)nicotinamide], the IC50 in [3] was determined as 7 nM; against ALK3 (aa198-525), 1100 nM; in data set [4], 10 nM; on ALK1 (aa166-493), 81 nM; on ALK5 (aa162-503), 2200 nM; at ALK6 (aa168-495) it was 2500 nM. The half-inhibitory concentration (IC50) in [5] was determined as 120 nM.

`COCCN1C[C@H]2C[C@@]2(c2ccc(-c3cnc(N)c(C(=O)N[C@H]4CC[C@H](O)CC4)c3)cc2)C1` [Example 75, 2-amino-N-((1r,4R)-4-hydroxycyclohexyl)-5-(4-((1R,5S)-3-(2-methoxyethyl)-3-azabicyclo[3.1.0]hexan-1-yl)phenyl)nicotinamide]: the IC50 in [3] came out at 11 nM; at ALK3 (aa198-525), 1800 nM; in [4], 140 nM; at ALK1 (aa166-493) it was 210 nM; on ALK5 (aa162-503), 4600 nM; on ALK6 (aa168-495), 7700 nM. For the same compound, the IC50 in data set [5] came to 330 nM.

For the compound `C#CCN1C[C@@H]2C[C@]2(c2ccc(-c3cnc(N)c(C(=O)N[C@H]4CC[C@H](O)CC4)c3)cc2)C1` [Example 53, 2-amino-N-((1r,4S)-4-hydroxycyclohexyl)-5-(4-((1S,5R)-3-(prop-2-yn-1-yl)-3-azabicyclo[3.1.0]hexan-1-yl)phenyl)nicotinamide], the IC50 turned out to be 13 nM in [3]; 1200 nM on ALK3 (aa198-525); 32 nM in data set [4]; 190 nM at ALK1 (aa166-493); 2000 nM on ALK5 (aa162-503); 2500 nM on ALK6 (aa168-495). Further, the IC50 in [5] was found to be 50 nM.

For `[2H][C@]1(O)CC[C@H](NC(=O)c2cc(-c3ccc([C@]45C[C@H]4CN(C(C)C)C5)cc3)cnc2N)CC1` [Example 78, 2-amino-N-((1r,4S)-4-hydroxycyclohexyl-4-d)-5-(4-((1S,5R)-3-isopropyl-3-azabicyclo[3.1.0]hexan-1-yl)phenyl)nicotinamide], the IC50 in [3] stood at 37 nM; against ALK3 (aa198-525), 8300 nM; in data set [4], 109 nM; on ALK1 (aa166-493), 310 nM; at ALK5 (aa162-503), 7800 nM; at ALK6 (aa168-495), 10000 nM. The IC50 in [5] came out at 220 nM.

Consider `Nc1ncc(-c2ccc(OCCCN3CCOCC3)cc2)cc1C(=O)NC1CCCCC1` [Example 52, 2-amino-N-cyclohexyl-5-(4-(3-morpholinopropoxy)phenyl)nicotinamide], for which the IC50 stood at 67 nM in data set [3]; 2800 nM against ALK3 (aa198-525); 31 nM in [4]; 970 nM on ALK1 (aa166-493); 8600 nM at ALK5 (aa162-503); 20200 nM on ALK6 (aa168-495). The IC50 in data set [5] was 340 nM.

As to `Nc1ncc(-c2ccc([C@@]34C[C@@H]3CN(CCN3CCOCC3)C4)cc2)cc1C(=O)NC12CCC(O)(CC1)CC2` [Example 15, 2-amino-N-(4-hydroxybicyclo[2.2.2]octan-1-yl)-5-(4-((1R,5S)-3-(2-morpholinoethyl)-3-azabicyclo[3.1.0]hexan-1-yl)phenyl)nicotinamide], the IC50 in data set [3] worked out at 29 nM; against ALK3 (aa198-525) it was 967 nM; in [4], 20 nM; on ALK1 (aa166-493), 370 nM; at ALK5 (aa162-503) it was 3770 nM; on ALK6 (aa168-495) it was 2230 nM. Moreover, in data set [5], the IC50 was 74 nM.

In the case of `Nc1ncc(-c2ccc([C@@]34C[C@@H]3CN(CCF)C4)cc2)cc1C(=O)N[C@H]1CC[C@H](O)CC1` [Example 48, 2-amino-5-(4-((1R,5S)-3-(2-fluoroethyl)-3-azabicyclo[3.1.0]hexan-1-yl)phenyl)-N-((1r,4R)-4-hydroxycyclohexyl)nicotinamide], the IC50 stood at 8 nM in [3]; 970 nM against ALK3 (aa198-525); 34 nM in data set [4]; 120 nM at ALK1 (aa166-493); 5300 nM at ALK5 (aa162-503); 4400 nM at ALK6 (aa168-495). In addition, in [5], the half-inhibitory concentration (IC50) was 360 nM.

As for `Nc1ncc(-c2ccc([C@]34C[C@H]3CN(C3COC3)C4)cc2)cc1C(=O)NC12CCC(O)(CC1)CC2` [Example 63, 2-amino-N-(4-hydroxybicyclo[2.2.2]octan-1-yl)-5-(4-((1S,5R)-3-(oxetan-3-yl)-3-azabicyclo[3.1.0]hexan-1-yl)phenyl)nicotinamide], the IC50 in [3] turned out to be 91 nM; against ALK3 (aa198-525) it was 1800 nM; in [4] it was 57 nM; on ALK1 (aa166-493), 940 nM; at ALK5 (aa162-503), 6700 nM; on ALK6 (aa168-495) it was 3500 nM. The IC50 in data set [5] came to 390 nM.

A word on the solubility: it is the dissolved amount per volume that the medium holds. Lower therefore signals a poorly soluble substance. Broadly, the IC50 is the midpoint of a concentration-inhibition curve.
